What was measured:
[1] = tested on: NF-1−/− and NF-1+/− SV40 MEFs; test: colchicine-induced death, cell viability by MTT assay; assay type: cell-based, mouse; conditions: NF-1−/− and NF-1+/− cells; 75 μM FTS or vehicle 24 h, then colchicine 4.5 h
Experimental: (§1) Human NF-1 ST88-14 MPNST, non-NF-1 STS26T MPNST, and the different primary and SV40-immortalized NF-1 genotypes (NF-1^−/−, NF-1^+/−, and NF-1^+/+) of mouse embryonic fibroblasts (MEFs) were grown in high-glucose Dulbecco's modified Eagle's medium (DMEM) supplemented with 10% heat-inactivated fetal calf serum (both from Biological Industries, Beit Ha Emek, Israel) with 0.0004% β-mercaptoethanol added to the MEF growth medium only.
(§2) The three primary NF-1 MEF genotypes were immortalized by transfection with SV40 whole genome DNA (a gift from Dr. Atan Gross, The Weizmann Institute of Science) using the lipofectamine transfection reagent (InvitroGen Life Technologies, Paisley, UK). One day before transfection, primary MEFs were seeded at a density of 2×10^5 cells per well in 6-well plates. To each dish we added 1 ml of DNA-lipofectamine mixture, 0.1 μg SV40 whole genome DNA, and 10 μg of lipofectamine in 1 ml of OptiMEM (InvitroGen), according to the manufacturer's instructions. The cells were split 24 h after transfection and seeded in 10-cm^2 dishes at a density of 1×10^3 to 1×10^4 cells per dish. Immortalized clones from each NF-1 genotype were collected 14 days after transfection.
(§3) Cell viability was determined by the MTT assay.

NF-1+/+ SV40 MEFs = test: as above; assay type: cell-based, mouse; conditions: NF-1+/+ cells; 75 μM FTS or vehicle 24 h, then colchicine 4.5 h
Experimental: as §1, §2, §3

COc1cc2c(c(OC)c1OC)-c1ccc(OC)c(=O)cc1[C@@H](NC(C)=O)CC2 [colchicine, Acetamide, N-((7S)-5,6,7,9-tetrahydro-1,2,3,10-tetramethoxy-9-oxobenzo(a)heptalen-7-yl)-]
cell survival / colchicine-induced cell death [1]: only a small effect on cell survival
cell survival / colchicine-induced cell death (NF-1+/+ SV40 MEFs): induced death

Source: patent US20110046223A1, “TREATMENT OF NEUROFIBROMATOSIS” (RAMOT AT TEL-AVIV UNIVERSITY LTD., priority 2006, published 2011)
